Laboratory results: US9067977B2, “Peptides derivatized with A-B-C-D- and their therapeutical use” (Novo Nordisk A/S, priority 2007, dated 2015)
Starred links: 1 amine or outer side, 2 acyl side, 3 side chain; linkers in the order of their positions; H or OH if unused. Residues, ends and D or L forms follow the SMILES beside them. Groups on a side chain read outwards from the residue. *: point of attachment. C20 diacid = O=C(O)CCCCCCCCCCCCCCCCCCC(=O)*; γGlu = O=C(O)[C@H](CCC(=O)[*:2])N[*:1]; Desaminohistidyl = O=C(CCc1c[nH]cn1)*; Trx = NC[C@H]1CC[C@H](C(=O)O)CC1; AEEA = NCCOCCOCC(=O)O; Inp = O=C(O)C1CCNCC1

Target: human serum albumin (HSA) (Homo sapiens, UniProt P02768)
Sequence (P02768 25-609): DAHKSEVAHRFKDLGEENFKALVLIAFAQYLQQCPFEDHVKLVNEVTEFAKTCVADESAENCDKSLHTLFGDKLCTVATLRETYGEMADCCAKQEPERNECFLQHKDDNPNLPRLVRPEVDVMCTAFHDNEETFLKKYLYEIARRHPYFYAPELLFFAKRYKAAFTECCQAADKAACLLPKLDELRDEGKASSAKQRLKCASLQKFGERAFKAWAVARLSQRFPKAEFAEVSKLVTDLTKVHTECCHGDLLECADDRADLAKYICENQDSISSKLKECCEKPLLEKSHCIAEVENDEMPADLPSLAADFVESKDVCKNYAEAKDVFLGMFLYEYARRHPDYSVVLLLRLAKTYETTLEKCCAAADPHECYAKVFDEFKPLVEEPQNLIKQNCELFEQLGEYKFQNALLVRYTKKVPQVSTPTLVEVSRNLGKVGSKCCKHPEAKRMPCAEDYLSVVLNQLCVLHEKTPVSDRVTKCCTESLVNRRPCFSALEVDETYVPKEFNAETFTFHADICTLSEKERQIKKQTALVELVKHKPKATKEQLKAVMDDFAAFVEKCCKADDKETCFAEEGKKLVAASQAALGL
Assay: Albumin binding affinity, competition scintillation proximity assay
Settings: not given

Structure (SMILES) | EC50 [nM]
CC[C@H](C)[C@H](NC(=O)[C@H](Cc1ccccc1)NC(=O)[C@H](CCC(=O)O)NC(=O)[C@H](CCCNC(=N)N)NC(=O)[C@H](C)NC(=O)[C@H](C)NC(=O)[C@H](CCC(N)=O)NC(=O)[C@H](CCC(=O)O)NC(=O)[C@H](CCC(=O)O)NC(=O)[C@H](CC(C)C)NC(=O)[C@H](Cc1ccc(O)cc1)NC(=O)[C@H](CO)NC(=O)[C@H](CO)NC(=O)[C@@H](NC(=O)[C@H](CC(=O)O)NC(=O)[C@H](CO)NC(=O)[C@@H](NC(=O)[C@H](Cc1ccccc1)NC(=O)[C@@H](NC(=O)CNC(=O)[C@H](CCC(=O)O)NC(=O)[C@H](C)NC(=O)CCc1c[nH]cn1)[C@@H](C)O)[C@@H](C)O)C(C)C)C(=O)N[C@@H](C)C(=O)N[C@@H](Cc1c[nH]c2ccccc12)C(=O)N[C@@H](CC(C)C)C(=O)N[C@H](C(=O)N[C@@H](CCCNC(=N)N)C(=O)NCC(=O)N[C@@H](CCCNC(=N)N)C(=O)N[C@@H](CCCCNC(=O)COCCOCCNC(=O)COCCOCCNC(=O)C[C@@H](NC(=O)C1CCN(C(=O)CCCCCCCCCCCCCCCCCCC(=O)O)CC1)C(=O)O)C(N)=O)C(C)C [Example 1, N-ε^37{2-[2-(2-{2-[2-((R)-3-carboxy-3-{[1-(19-carboxynonadecanoyl)piperidine-4-carbonyl]amino}propionylamino)ethoxy]ethoxy}acetylamino)ethoxy]ethoxy}acetyl [desaminoHis^7,Glu^22,Arg^26,Arg^34,Lys^37]GLP-1(7-37)amide] | 300 to 800
CC[C@H](C)[C@H](NC(=O)[C@H](Cc1ccccc1)NC(=O)[C@H](CCC(=O)O)NC(=O)[C@H](CCCNC(=N)N)NC(=O)[C@H](C)NC(=O)[C@H](C)NC(=O)[C@H](CCC(N)=O)NC(=O)CNC(=O)[C@H](CCC(=O)O)NC(=O)[C@H](CC(C)C)NC(=O)[C@H](Cc1ccc(O)cc1)NC(=O)[C@H](CO)NC(=O)[C@H](CO)NC(=O)[C@@H](NC(=O)[C@H](CC(=O)O)NC(=O)[C@H](CO)NC(=O)[C@@H](NC(=O)[C@H](Cc1ccccc1)NC(=O)[C@@H](NC(=O)CNC(=O)[C@H](CCC(=O)O)NC(=O)[C@H](C)NC(=O)CCc1c[nH]cn1)[C@@H](C)O)[C@@H](C)O)C(C)C)C(=O)N[C@@H](C)C(=O)N[C@@H](Cc1c[nH]c2ccccc12)C(=O)N[C@@H](CC(C)C)C(=O)N[C@H](C(=O)N[C@@H](CCCNC(=N)N)C(=O)NCC(=O)N[C@@H](CCCNC(=N)N)C(=O)N[C@@H](CCCCNC(=O)COCCOCCNC(=O)CC[C@H](NC(=O)CC[C@H](NC(=O)CCCCCCCCCCCNC(=O)CCCS(=O)(=O)NC(=O)CCCCCCCCCCCCCCCc1nnn[nH]1)C(=O)O)C(=O)O)C(N)=O)C(C)C [Example 50] | 1 to 100
CC[C@H](C)[C@H](NC(=O)[C@H](Cc1ccccc1)NC(=O)[C@H](CCC(=O)O)NC(=O)[C@H](CCCNC(=N)N)NC(=O)[C@H](C)NC(=O)[C@H](C)NC(=O)[C@H](CCC(N)=O)NC(=O)[C@H](CCC(=O)O)NC(=O)[C@H](CCC(=O)O)NC(=O)[C@H](CC(C)C)NC(=O)[C@H](Cc1ccc(O)cc1)NC(=O)[C@H](CO)NC(=O)[C@H](CO)NC(=O)[C@@H](NC(=O)[C@H](CC(=O)O)NC(=O)[C@H](CO)NC(=O)[C@@H](NC(=O)[C@H](Cc1ccccc1)NC(=O)[C@@H](NC(=O)CNC(=O)[C@H](CCC(=O)O)NC(=O)[C@H](C)NC(=O)CCc1c[nH]cn1)[C@@H](C)O)[C@@H](C)O)C(C)C)C(=O)N[C@@H](C)C(=O)N[C@@H](Cc1c[nH]c2ccccc12)C(=O)N[C@@H](CC(C)C)C(=O)N[C@H](C(=O)N[C@@H](CCCNC(=N)N)C(=O)NCC(=O)N[C@@H](CCCNC(=N)N)C(=O)NCC(=O)N[C@@H](CCCCNC(=O)COCCOCCNC(=O)COCCOCCNC(=O)CC[C@H](NC(=O)C1CCN(C(=O)CCCCCCCCCCCCCCCCCCC(=O)O)CC1)C(=O)O)C(=O)O)C(C)C [Example 7, [DesaminoHis7,Glu22,Arg26,Arg34]GLP-1-(7-37)-Lys(2-{2-[2-(2-{2-[2-((S)-4-Carboxy-4-{[1-(19-carboxynonadecanoyl)piperidine-4-carbonyl]amino}butyrylamino)ethoxy]ethoxy}acetylamino)ethoxy]ethoxy}acetyl)] (Desaminohistidyl-AEGTFTSDVSSYLEEQAAREFIAWLVRGRGK([AEEA-AEEA-γGlu-Inp-C20 diacid])-OH) | 300 to 800
CC[C@H](C)[C@H](NC(=O)[C@H](Cc1ccccc1)NC(=O)[C@H](CCC(=O)O)NC(=O)[C@H](CCCCNC(=O)COCCOCCNC(=O)CC[C@H](NC(=O)CC[C@H](NC(=O)CCCCCCCCCCCNC(=O)CCCS(=O)(=O)NC(=O)CCCCCCCCCCCCCCCc1nnn[nH]1)C(=O)O)C(=O)O)NC(=O)[C@H](C)NC(=O)[C@H](C)NC(=O)[C@H](CCC(N)=O)NC(=O)CNC(=O)[C@H](CCC(=O)O)NC(=O)[C@H](CC(C)C)NC(=O)[C@H](Cc1ccc(O)cc1)NC(=O)[C@H](CO)NC(=O)[C@H](CO)NC(=O)[C@@H](NC(=O)[C@H](CC(=O)O)NC(=O)[C@H](CO)NC(=O)[C@@H](NC(=O)[C@H](Cc1ccccc1)NC(=O)[C@@H](NC(=O)CNC(=O)[C@H](CCC(=O)O)NC(=O)C(C)(C)NC(=O)[C@@H](N)Cc1c[nH]cn1)[C@@H](C)O)[C@@H](C)O)C(C)C)C(=O)N[C@@H](C)C(=O)N[C@@H](Cc1c[nH]c2ccccc12)C(=O)N[C@@H](CC(C)C)C(=O)N[C@H](C(=O)N[C@@H](CCCNC(=N)N)C(=O)NCC(=O)N[C@@H](CCCNC(=N)N)C(N)=O)C(C)C [Example 44, N-epsilon26-[2-(2-{2-[(S)-4-Carboxy-4-((S)-4-carboxy-4-{12-[4-(16-(1H-tetrazol-5-yl)hexadecanoylsulfamoyl)butyrylamino]dodecanoylamino}butyrylamino)butyrylamino]ethoxy}ethoxy)acetyl][Aib8,Arg34]GLP-1-(7-36)amide] | 1 to 100

Same assay, conditions: human, biotinylated human serum albumin on streptavidin-SPA beads, pH 7.4

Structure (SMILES) | EC50 at 20 h [nM]
CC[C@H](C)[C@H](NC(=O)[C@H](Cc1ccccc1)NC(=O)[C@H](CCC(=O)O)NC(=O)[C@H](CCCNC(=N)N)NC(=O)[C@H](C)NC(=O)[C@H](C)NC(=O)[C@H](CCC(N)=O)NC(=O)CNC(=O)[C@H](CCC(=O)O)NC(=O)[C@H](CC(C)C)NC(=O)[C@H](Cc1ccc(O)cc1)NC(=O)[C@H](CO)NC(=O)[C@H](CO)NC(=O)[C@@H](NC(=O)[C@H](CC(=O)O)NC(=O)[C@H](CO)NC(=O)[C@@H](NC(=O)[C@H](Cc1ccccc1)NC(=O)[C@@H](NC(=O)CNC(=O)[C@H](CCC(=O)O)NC(=O)[C@H](C)NC(=O)CCc1c[nH]cn1)[C@@H](C)O)[C@@H](C)O)C(C)C)C(=O)N[C@@H](C)C(=O)N[C@@H](Cc1c[nH]c2ccccc12)C(=O)N[C@@H](CC(C)C)C(=O)N[C@H](C(=O)N[C@@H](CCCNC(=N)N)C(=O)NCC(=O)N[C@@H](CCCNC(=N)N)C(=O)N[C@@H](CCCCNC(=O)COCCOCCNC(=O)CC[C@H](NC(=O)CC[C@H](NC(=O)CCCCCCCCCCCNC(=O)CCCS(=O)(=O)NC(=O)CCCCCCCCCCCCCCCc1nnn[nH]1)C(=O)O)C(=O)O)C(=O)O)C(C)C [Example 65, N-epsilon37-[2-(2-{2-[(S)-4-Carboxy-4-((S)-4-carboxy-4-{12-[4-(16-(1H-tetrazol-5-yl)hexadecanoylsulfamoyl)butyrylamino]dodecanoylamino}butyrylamino)butyrylamino]ethoxy}ethoxy)acetyl][DesaminoHis7,Arg26,Arg34,Lys37]GLP-1-(7-37)] | 1 to 100
CC[C@H](C)[C@H](NC(=O)[C@H](Cc1ccccc1)NC(=O)[C@H](CCC(=O)O)NC(=O)[C@H](CCCNC(=N)N)NC(=O)[C@H](C)NC(=O)[C@H](C)NC(=O)[C@H](CCC(N)=O)NC(=O)[C@H](CCC(=O)O)NC(=O)[C@H](CCC(=O)O)NC(=O)[C@H](CC(C)C)NC(=O)[C@H](Cc1ccc(O)cc1)NC(=O)[C@H](CO)NC(=O)[C@H](CO)NC(=O)[C@@H](NC(=O)[C@H](CC(=O)O)NC(=O)[C@H](CO)NC(=O)[C@@H](NC(=O)[C@H](Cc1ccccc1)NC(=O)[C@@H](NC(=O)CNC(=O)[C@H](CCC(=O)O)NC(=O)[C@H](C)NC(=O)CCc1c[nH]cn1)[C@@H](C)O)[C@@H](C)O)C(C)C)C(=O)N[C@@H](C)C(=O)N[C@@H](Cc1c[nH]c2ccccc12)C(=O)N[C@@H](CC(C)C)C(=O)N[C@H](C(=O)N[C@@H](CCCNC(=N)N)C(=O)NCC(=O)N[C@@H](CCCNC(=N)N)C(=O)NCC(=O)N[C@@H](CCCCNC(=O)COCCOCCNC(=O)COCCOCCNC(=O)CC[C@H](NC(=O)[C@H]1CC[C@H](CNC(=O)CCCCCCCCCCCCCCCCCCC(=O)O)CC1)C(=O)O)C(N)=O)C(C)C [Example 27, [DesaminoHis7,Glu22,Arg26,Arg34]GLP-1-(7-37)Lys[2-(2-{2-[2-(2-{2-[4-Carboxy-4-({trans-4-[(19-carboxy-nonadecanoylamino)methyl]cyclohexanecarbonyl}amino)butyrylamino]ethoxy}ethoxy)acetylamino]ethoxy}ethoxy)acetyl]-amide] (Desaminohistidyl-AEGTFTSDVSSYLEEQAAREFIAWLVRGRGK([AEEA-AEEA-γGlu-Trx-C20 diacid])-NH2) | 800 to 2000
CC[C@H](C)[C@H](NC(=O)[C@H](Cc1ccccc1)NC(=O)[C@H](CCC(=O)O)NC(=O)[C@H](CCCNC(=N)N)NC(=O)[C@H](C)NC(=O)[C@H](C)NC(=O)[C@H](CCC(N)=O)NC(=O)[C@H](CCC(=O)O)NC(=O)[C@H](CCC(=O)O)NC(=O)[C@H](CC(C)C)NC(=O)[C@H](Cc1ccc(O)cc1)NC(=O)[C@H](CO)NC(=O)[C@H](CO)NC(=O)[C@@H](NC(=O)[C@H](CC(=O)O)NC(=O)[C@H](CO)NC(=O)[C@@H](NC(=O)[C@H](Cc1ccccc1)NC(=O)[C@@H](NC(=O)CNC(=O)[C@H](CCC(=O)O)NC(=O)[C@H](C)NC(=O)CCc1c[nH]cn1)[C@@H](C)O)[C@@H](C)O)C(C)C)C(=O)N[C@@H](C)C(=O)N[C@@H](Cc1c[nH]c2ccccc12)C(=O)N[C@@H](CC(C)C)C(=O)N[C@H](C(=O)N[C@@H](CCCNC(=N)N)C(=O)NCC(=O)N[C@@H](CCCNC(=N)N)C(=O)NCC(=O)N[C@@H](CCCCNC(=O)CC[C@H](NC(=O)COCCOCCNC(=O)CC[C@H](NC(=O)C1CCN(C(=O)CCCCCCCCCCCCCCCCCCC(=O)O)CC1)C(=O)O)C(=O)O)C(=O)O)C(C)C [Example 57, [DesaminoHis7,Glu22,Arg26,34]-GLP-1 (7-37)-Lys((S)-4-carboxy-4-(2-{2-[2-((S)-4-carboxy-4-{[1-(19-carboxynonadecanoyl)piperidine-4-carbonyl]amino}butyrylamino)ethoxy]ethoxy}acetylamino)butyryl) peptide] (Desaminohistidyl-AEGTFTSDVSSYLEEQAAREFIAWLVRGRGK([γGlu-AEEA-γGlu-Inp-C20 diacid])-OH) | 100 to 150
